Patent US10329302B2, “Bicyclic-fused heteroaryl or aryl compounds” (Pfizer Inc., priority 2014, dated 2019)
pIC50: −log10 of the molar value.

Tests used:
Female Lewis rats = experiment: In Vivo Rat Collagen-Induced Arthritis Model; settings: for days on which hind paw swelling was significantly reduced (t-test, p<0.05 vs. vehicle): CIA Lewis rats, paw volume by plethysmograph
Procedure: In Vivo Rat Collagen-Induced Arthritis Model.
Efficacy of IRAK4 compounds of the present invention was also evaluated in a rat in vivo model of rheumatoid arthritis (M. Hegen, J. C. Keith, Jr, M. Collins, C. L. Nickerson-Nutter, Ann. Rheum. Dis. 2008, 67, 1505-1515). An exemplary protocol for this in vivo model follows.
Female Lewis rats, approximately 7 weeks old, were immunized with an emulsion of type II collagen (CII) and incomplete Freund's adjuvant (IFA) on day 0 and received a boost of CII/IFA on day 7. Hind paw volume increase was taken by plethysmograph. Animals were randomly enrolled into treatment groups based on the development of disease. Beginning on day 11 post immunization, rats were enrolled into random treatment groups based on an increase in a single hind paw volume compared to day 7 post immunization baseline measurements.
Ten rats were enrolled per treatment group with the exception of the naive control group, which contained two rats. Day 0 was designated as the first treatment day, and paw measurements are taken daily by plethysmograph. The rats were weighed on a daily basis.
IRAK4 inhibitors are efficacious in the Lewis rat model of collagen-induced arthritis.

serum TNF = experiment: In Vivo Mouse LPS/D-Gal Challenge Model; settings: oral
Procedure: In Vivo Mouse LPS/D-Gal Challenge Model.
Efficacy of IRAK4 compounds of the present invention was also evaluated in an in vivo mouse model of endotoxin induced (Lipopolysaccharide (LPS)) inflammation. See: S. Copeland, H. W. Warren, S. F. Lowry, S. E. Calvano, and D. Remick, Clin. Diagn. Lab. Immnol. 2005, 12(1), 60-67. An exemplary protocol for this in vivo model follows.
Female C57/BL6 mice, 8 to 10 weeks old, are orally administered either vehicle or formulated IRAK-4 compound 1 hour prior to the challenge. Vehicle or IRAK4 compound is administered by oral gavage at a volume of 10 mL/kg. One hour post oral delivery of vehicle or compound, the animals are challenged with an intraperitoneal injection (IP) of a solution containing 1 μg/mL LPS and 80 mg/mL D-gal. Each mouse is injected with […] of the solution, for a final challenge dose of 100 ng LPS and 8 mg D-gal. Ninety minutes post LPS/D-gal challenge, animals are euthanized and blood collected. Blood is allowed to clot at room temperature and serum is separated by centrifugation and stored at −80° C. for analysis. Serum TNF and IL-6 are measured by Meso Scale Discovery (MSD) multiplex platform.
The groups consisted of N=10 animals/group. Naïve animals and vehicle control groups were run with each study. Mean cytokine data was plotted and students T-test was performed to calculate significance (t-test, p<0.05 vs. vehicle) of IRAK4 treated group vs. vehicle treated group. Percent inhibition of cytokine induction was calculated for IRAK4 treated group vs. vehicle treated group.
Table 4 contains data from multiple studies with columns for Compound, Dose in mg/kg (mpk) and % inhibition of serum TNF. In cases where doses of certain compounds were repeated in multiple experiments, the average percent inhibition of TNF and standard deviation is shown in the table.

[1] = molecular target: human IRAK4 kinase domain (aa 154-460) (Homo sapiens (Human), UniProt Q9NWZ3); experiment: IRAK4 Enzymatic DELFIA Assay, Protocol B; format: biochemical; settings: human IRAK4 kinase domain (aa 154-460), 0.6 mM ATP (KM); read-out: IRAK4 DELFIA Protocol B IC50
Text: IRAK4 Enzymatic DELFIA Assay, Protocol B.

[2] = system: R848-induced TNFα production by human peripheral blood mononuclear cells (PBMCs); experiment: R848 Induced TNFα in Human PBMC Assay; format: cell-based; settings: Homo sapiens, PBMC, 3 h, read-out: R848-induced TNFa PBMC IC50 (nM)
[3] = molecular target: human IRAK4 FL (Full Length) (Homo sapiens (Human), UniProt Q9NWZ3); experiment: IRAK4 Enzymatic DELFIA Assay, Protocol A; format: biochemical; settings: human IRAK4 FL, 0.6 mM ATP (KM); read-out: IRAK4 DELFIA Protocol A IC50
Sequence of human IRAK4 FL (Full Length) (Q9NWZ3 whole entry): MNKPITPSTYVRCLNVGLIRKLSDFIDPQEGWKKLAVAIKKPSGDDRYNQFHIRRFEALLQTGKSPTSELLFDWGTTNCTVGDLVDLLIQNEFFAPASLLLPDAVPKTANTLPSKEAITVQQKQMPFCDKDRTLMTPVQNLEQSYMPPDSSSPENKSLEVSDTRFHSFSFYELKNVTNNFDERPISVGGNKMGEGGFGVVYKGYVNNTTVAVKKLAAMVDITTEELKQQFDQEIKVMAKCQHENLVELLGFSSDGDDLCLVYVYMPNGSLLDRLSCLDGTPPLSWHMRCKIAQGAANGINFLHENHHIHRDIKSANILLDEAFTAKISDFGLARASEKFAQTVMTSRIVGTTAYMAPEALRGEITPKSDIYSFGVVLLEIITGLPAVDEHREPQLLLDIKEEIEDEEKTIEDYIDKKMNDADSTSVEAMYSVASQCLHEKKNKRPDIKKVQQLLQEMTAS

Sequence of human IRAK4 kinase domain (aa 154-460) (Q9NWZ3 154-460): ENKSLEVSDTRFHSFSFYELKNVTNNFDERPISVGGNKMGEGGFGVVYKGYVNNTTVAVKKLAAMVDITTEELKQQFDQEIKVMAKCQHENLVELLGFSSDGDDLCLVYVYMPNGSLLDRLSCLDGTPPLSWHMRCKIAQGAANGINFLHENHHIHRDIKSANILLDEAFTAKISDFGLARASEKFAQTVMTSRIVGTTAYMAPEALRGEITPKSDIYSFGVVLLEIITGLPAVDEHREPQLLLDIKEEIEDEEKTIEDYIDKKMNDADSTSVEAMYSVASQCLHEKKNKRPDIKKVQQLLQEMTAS

Cc1ccc(-n2nc(C(C)(C)C)cc2NC(=O)Nc2ccc(OCCN3CCOCC3)c3ccccc23)cc1 [BIRB796]
days on which hind paw swelling was significantly reduced (t-test, p<0.05 vs. vehicle) (Female Lewis rats; 30 mg/kg PO, QD, positive control (p38 inhibitor)): Day 1-Day 8

CC(C)Oc1cc2c(OC[C@@H]3CCC(=O)N3)nccc2cc1C(N)=O [Example 26, 1-{[(2S)-5-oxopyrrolidin-2-yl]methoxy}-7-(propan-2-yloxy)isoquinoline-6-carboxamide]
% inhib TNF (serum TNF; Dose 10 mpk): 27 (±19) % | % inhib TNF (serum TNF; Dose 30 mpk): 41 (±17) % | % inhib TNF (serum TNF; Dose 100 mpk): 78 (±23) % | hind paw swelling in CIA rats (Female Lewis rats; 10 mg/kg PO, BID): transiently significant reduction in hind paw swelling only on Day 5 and Day 6 post treatment | days on which hind paw swelling was significantly reduced (t-test, p<0.05 vs. vehicle) (Female Lewis rats; 30 mg/kg PO, BID, therapeutic treatment for 8 days): Day 2-Day 8 | days on which hind paw swelling was significantly reduced (t-test, p<0.05 vs. vehicle) (Female Lewis rats; 100 mg/kg PO, BID, therapeutic treatment for 8 days): Day 1-Day 8 (end) | hind paw swelling in CIA rats (Female Lewis rats; therapeutic treatment BID daily for 8 days, t-test p<0.05 vs. vehicle): reduced the hind paw swelling in CIA rats significantly

CC(C)Oc1cc2c(OC[C@@H]3CCN3C(=O)CC#N)nccc2cc1C(N)=O [Example 73, 1-{[(2S)-1-(cyanoacetyl)azetidin-2-yl]methoxy}-7-(propan-2-yloxy)isoquinoline-6-carboxamide]
pIC50 [1]: 5.94 | IC50 [2]: 1590 nM | pIC50 [3]: 5.36

CC(C)Oc1cc2c(OC[C@@]34CNC[C@@H]3C4)nccc2cc1C(N)=O [Example 140, 1-[(1R,5R)-3-azabicyclo[3.1.0]hex-1-ylmethoxy]-7-(propan-2-yloxy)isoquinoline-6-carboxamide]
pIC50 [1]: 7.08

CC(C)Oc1cc2c(OC[C@@H]3CC(CO)C(=O)N3)nccc2cc1C(N)=O (stereo partly drawn) [Example 148, 1-{[(2S)-4-(hydroxymethyl)-5-oxopyrrolidin-2-yl]methoxy}-7-(propan-2-yloxy)isoquinoline-6-carboxamide]
pIC50 [1]: 7.62

CC(C)Oc1cc2c(OC[C@H]3COCCN3)nccc2cc1C(N)=O [Example 158, 1-[(3R)-morpholin-3-ylmethoxy]-7-(propan-2-yloxy)isoquinoline-6-carboxamide]
pIC50 [1]: 5.84

CC(C)Oc1cc2c(OCC3CCCN3)nccc2cc1C(N)=O (stereo not shown) [Example 159, 7-(propan-2-yloxy)-1-(pyrrolidin-2-ylmethoxy)isoquinoline-6-carboxamide]
pIC50 [1]: 5.47

CC(C)Oc1cc2c(OC[C@@H]3COCCN3)nccc2cc1C(N)=O [Example 160, 1-[(3S)-morpholin-3-ylmethoxy]-7-(propan-2-yloxy)isoquinoline-6-carboxamide]
pIC50 [1]: 6.82

CC(C)Oc1cc2c(OC[C@@]34CNCC[C@@H]3C4)nccc2cc1C(N)=O [Example 161, 1-[(1R,6S)-3-azabicyclo[4.1.0]hept-1-ylmethoxy]-7-(propan-2-yloxy)isoquinoline-6-carboxamide]
pIC50 [1]: 7.06

CC(C)Oc1cc2c(OC[C@]34CNCC[C@H]3C4)nccc2cc1C(N)=O [Example 162, 1-[(1S,6R)-3-azabicyclo[4.1.0]hept-1-ylmethoxy]-7-(propan-2-yloxy)isoquinoline-6-carboxamide]
pIC50 [1]: 7.46

CC(C)Oc1cc2c(OC[C@H]3NC(=O)[C@@H]4OC(C)(C)O[C@H]34)nccc2cc1C(N)=O [Example 167, 1-{[(3aR,4R,6aR)-2,2-dimethyl-6-oxotetrahydro-3aH-[1,3]dioxolo[4,5-c]pyrrol-4-yl]methoxy}-7-(propan-2-yloxy)isoquinoline-6-carboxamide]
pIC50 [1]: 7.72

COc1cc2c(OC[C@@H]3CCC(=O)N3)cccc2cc1C(N)=O [Example 173, 3-methoxy-5-{[(2S)-5-oxopyrrolidin-2-yl]methoxy}naphthalene-2-carboxamide]
% inhib TNF (serum TNF; Dose 30 mpk): 55% | % inhib TNF (serum TNF; Dose 100 mpk): 98%

CC(C)Oc1cc2c(OC[C@]34CNC(=O)[C@H]3C4)nccc2cc1C(N)=O [Example 175, 1-{[(1S,5S)-4-oxo-3-azabicyclo[3.1.0]hex-1-yl]methoxy}-7-(propan-2-yloxy)isoquinoline-6-carboxamide]
pIC50 [1]: 7.00

CC(C)Oc1cc2c(OC[C@@H]3C[C@](O)(CC(F)(F)F)C(=O)N3)nccc2cc1C(N)=O [Example 184, 1-{[(2S,4S)-4-hydroxy-5-oxo-4-(2,2,2-trifluoroethyl)pyrrolidin-2-yl]methoxy}-7-(propan-2-yloxy)isoquinoline-6-carboxamide]
pIC50 [1]: 7.22

COc1cc2c(OC[C@H]3NC(=O)[C@@H](F)[C@H]3C)nccc2cc1C(N)=O [Example 189, 1-{[(2S,3S,4S)-4-fluoro-3-methyl-5-oxopyrrolidin-2-yl]methoxy}-7-methoxyisoquinoline-6-carboxamide]
IC50 [2]: 12 nM | % inhib TNF (serum TNF; Dose 30 mpk): 40%

CC(C)Oc1cc2c(OCC3CCNC3)nccc2cc1C(N)=O (stereo not shown) [Example 191, 7-(propan-2-yloxy)-1-(pyrrolidin-3-ylmethoxy)isoquinoline-6-carboxamide]
pIC50 [1]: 6.60

COc1cc2c(OC[C@@H]3C[C@](C)(F)C(=O)N3)cccc2cc1C(N)=O [Example 194, 5-{[(2S,4S)-4-fluoro-4-methyl-5-oxopyrrolidin-2-yl]methoxy}-3-methoxynaphthalene-2-carboxamide]
IC50 [2]: 5.2 nM | % inhib TNF (serum TNF; Dose 30 mpk): 76% | pIC50 [3]: 9.00

COc1cc2c(OC[C@@H]3NC(=O)CC3(C)C)nccc2cc1C(N)=O [Example 222, 1-{[(2R)-3,3-dimethyl-5-oxopyrrolidin-2-yl]methoxy}-7-methoxyisoquinoline-6-carboxamide]
pIC50 [1]: 5.73

CC(C)Oc1cc2c(OC[C@@H]3NC(=O)CC3(C)C)nccc2cc1C(N)=O [Example 223, 1-{[(2R)-3,3-dimethyl-5-oxopyrrolidin-2-yl]methoxy}-7-(propan-2-yloxy)isoquinoline-6-carboxamide]
pIC50 [1]: 7.82
